Measured values taken from ChEMBL document CHEMBL4145551, “Mitochondria-targeting indolizino[3,2-c]quinolines as novel class of photosensitizers for photodynamic anticancer activity” (Eur J Med Chem, 2018).
Activity calls are given as the source filed them. The rule behind the calls is not given here.

Key:
[1] = tested on: Calf thymus DNA; assay: Binding affinity to calf thymus DNA assessed as red shift in absorption maxima; assay type: nucleic-acid assay; conditions: Bos taurus
[2] = tested on: Calf thymus DNA; assay: Binding affinity to calf thymus DNA assessed as red shift in emission maxima; assay type: nucleic-acid assay; conditions: Bos taurus
[3] = Induction of singlet oxygen production assessed as photodegradation of DPBF by measuring quantum yield after irradiation with 356 nanometer light by UV-Visible spectroscopic analysis; assay type: functional
[4] = tested on: A549; assay: Photocytotoxicity against human A549 cells assessed as reduction in cell viability preincubated for 1 hr followed blue LED light irradiation for 5 mins and measured after 24 hrs by MTT assay; assay type: functional, cell-based
[5] = tested on: A549; assay: Photocytotoxicity against human A549 cells assessed as reduction in cell viability preincubated for 1 hr followed blue LED light irradiation for 10 mins and measured after 24 hrs by MTT assay; assay type: functional, cell-based
[6] = tested on: MCF7; assay: Photocytotoxicity against human MCF7 cells assessed as reduction in cell viability preincubated for 1 hr followed blue LED light irradiation for 10 mins and measured after 24 hrs by MTT assay; assay type: functional, cell-based
[7] = tested on: HeLa; assay: Photocytotoxicity against human HeLa cells assessed as reduction in cell viability preincubated for 1 hr followed blue LED light irradiation for 5 mins and measured after 24 hrs by MTT assay; assay type: functional, cell-based
[8] = Dark toxicity in human MCF7 cells assessed as reduction in cell viability up to 10 uM measured after 24 hrs by MTT assay; assay type: cell-based; conditions: mcf7, 24 h
[9] = Dark toxicity in human HeLa cells assessed as reduction in cell viability up to 10 uM measured after 24 hrs by MTT assay; assay type: cell-based
[10] = tested on: DNA; assay: Induction of Escherichia coli pBR322 DNA cleavage at 20 uM after 30 mins under dark condition by agarose gel electrophoresis method; assay type: nucleic-acid assay; conditions: 0.5 h
[11] = tested on: DNA; assay: Induction of Escherichia coli pBR322 DNA cleavage irradiated with blue LED light after 30 mins by agarose gel electrophoresis method; assay type: nucleic-acid assay
[12] = tested on: DNA; assay: Induction of Escherichia coli pBR322 DNA cleavage at 20 uM irradiated with blue LED light after 30 mins in presence of hydroxyl radical scavenger mannitol by agarose gel electrophoresis method; assay type: nucleic-acid assay
[13] = tested on: HeLa; assay: Induction of ROS generation in human HeLa cells preincubated for 1 hr followed by blue LED light irradiation for 15 mins by DHE staining based HCS analysis; assay type: functional, cell-based
[14] = tested on: HeLa; assay: Photocytotoxicity against human HeLa cells assessed as reduction in cell viability at 2 uM preincubated for 1 hr followed blue LED light irradiation for 5 mins and measured after 24 hrs in presence of singlet oxygen scavenger histidine by MTT assay; assay type: functional, cell-based
[15] = Drug uptake in human HeLa cell cytoplasm at 10 uM after 1 hr by mitotracker red staining based confocal laser scanning microscopic method; assay type: ADME, subcellular
[16] = tested on: HeLa; assay: Photocytotoxicity against human HeLa cells assessed as induction of mitochondrial membrane potential depolarization at 10 uM preincubated for 1 hr followed by blue LED light irradiation for 5 mins by TMRE staining based confocal microscopic method; assay type: functional, cell-based
[17] = tested on: MCF7; assay: Photocytotoxicity against human MCF7 cells assessed as induction of mitochondrial membrane potential depolarization at 10 uM preincubated for 1 hr followed by blue LED light irradiation for 5 mins by TMRE staining based confocal microscopic method; assay type: functional, cell-based
[18] = tested on: HeLa; assay: Photocytotoxicity against human HeLa cells assessed as cell membrane blebbing at 10 uM preincubated for 1 hr followed by blue LED light irradiation for 5 mins by differential interference contrast imaging analysis; assay type: functional, cell-based
[19] = Drug uptake in human HeLa cell mitochondria at 10 uM incubated for 1 to 2 hrs under 488 nanometer laser light irradiation by confocal microscopic method; assay type: ADME
[20] = Drug uptake in human MCF7 cell mitochondria at 10 uM incubated for 1 to 2 hrs under 488 nanometer laser light irradiation by confocal microscopic method; assay type: ADME; conditions: mcf7, 10 µM
[21] = Drug uptake in mouse NIH/3T3 cell mitochondria at 10 uM incubated for 1 to 2 hrs under 488 nanometer laser light irradiation by confocal microscopic method; assay type: ADME; conditions: nih3t3, 10 µM
[22] = tested on: MCF7; assay: Photocytotoxicity against human MCF7 cells assessed as cytoplasmic shrinkage at 10 uM preincubated for 1 hr followed by 488 nanometer laser light irradiation and measured after 8 to 10 mins by confocal microscopic method; assay type: functional, cell-based
[23] = tested on: NIH3T3; assay: Cytotoxicity against mouse NIH/3T3 cells assessed as cytoplasmic shrinkage at 10 uM preincubated for 1 hr followed by 488 nanometer laser light irradiation and measured after 16 mins by confocal microscopic method; assay type: cell-based; conditions: nih3t3, 16 min
[24] = tested on: DNA; assay: Binding affinity to Escherichia coli pBR322 DNA assessed as increase in test compound fluorescence after 30 mins under blue LED light irradiation; assay type: nucleic-acid assay
[25] = tested on: HeLa; assay: Photocytotoxicity against human HeLa cells assessed as increase in cleaved caspase-9 protein expression preincubated for 1 hr followed by blue LED light irradiation for 10 mins and measured after 18 hrs by Western blot analysis; assay type: functional, cell-based
[26] = tested on: HeLa; assay: Photocytotoxicity against human HeLa cells assessed as increase in cleaved PARP protein expression preincubated for 1 hr followed by blue LED light irradiation for 10 mins and measured after 18 hrs by Western blot analysis; assay type: functional, cell-based
[27] = tested on: HeLa; assay: Photocytotoxicity against human HeLa cells assessed as plasma membrane blebbing at 0.5 uM preincubated for 1 hr followed by blue LED light irradiation for 5 mins and measured after 13 hrs by propidium iodide staining based fluorescence microscopic method; assay type: functional, cell-based
[28] = tested on: HeLa; assay: Photocytotoxicity against human HeLa cells assessed as cell shrinkage at 10 uM preincubated for 1 hr followed by blue LED light irradiation for 5 mins and measured after 13 hrs by propidium iodide staining based fluorescence microscopic method; assay type: functional
[29] = tested on: HeLa; assay: Photocytotoxicity against human HeLa cells assessed as plasma membrane blebbing up to 10 uM preincubated for 1 hr followed by blue LED light irradiation for 5 mins and measured after 13 hrs by Hoechst 33258 staining based fluorescence microscopic method; assay type: functional, cell-based
[30] = tested on: HeLa; assay: Photocytotoxicity against human HeLa cells assessed as chromatin condensation up to 10 uM preincubated for 1 hr followed by blue LED light irradiation for 5 mins and measured after 13 hrs by Hoechst 33258 staining based fluorescence microscopic method; assay type: functional, cell-based
[31] = tested on: HeLa; assay: Photocytotoxicity against human HeLa cells assessed as cellular shrinkage up to 10 uM preincubated for 1 hr followed by blue LED light irradiation for 5 mins and measured after 13 hrs by Hoechst 33258 staining based fluorescence microscopic method; assay type: functional, cell-based
[32] = tested on: HeLa; assay: Photocytotoxicity against human HeLa cells assessed as plasma membrane blebbing at 5 uM preincubated for 1 hr followed by blue LED light irradiation for 10 to 30 mins and measured after 2.5 hrs by holotomographic method; assay type: functional, cell-based
[33] = tested on: HeLa; assay: Photocytotoxicity against human HeLa cells assessed as plasma membrane blebbing at 20 uM preincubated for 1 hr followed by blue LED light irradiation for 10 mins and measured after 2.5 hrs by holotomographic method; assay type: functional, cell-based
[34] = tested on: HeLa; assay: Photocytotoxicity against human HeLa cells assessed as cell shrinkage at 5 uM preincubated for 1 hr followed by blue LED light irradiation for 10 to 30 mins and measured after 2.5 hrs by holotomographic method; assay type: functional, cell-based
[35] = tested on: HeLa; assay: Photocytotoxicity against human HeLa cells assessed as membrane protrusion at 20 uM preincubated for 1 hr followed by blue LED light irradiation for 10 mins and measured after 2.5 hrs by holotomographic method; assay type: functional, cell-based

In the case of `Cc1cccn2c1cc1c3ccccc3nc(-c3ccco3)c12`, the Activity [1] is reported as 57 nm, the Activity [2] is reported as 36 nm and the Activity [3] is reported as 0.33. For the same compound, the Activity [4] was “Dose-dependent effect”, the IC50 ([4]; A549, light or radiation study) was 2960 nM and the Activity [5] was “Dose-dependent effect”. For the same compound, the IC50 ([5]; A549, light or radiation study) was 2370 nM, the Activity [6] was “Dose-dependent effect” and the IC50 ([6]; MCF7, light or radiation study) was 1670 nM. The Activity [7] was “Dose-dependent effect”, the IC50 ([7]; light or radiation study) was 1760 nM and the Activity [8] was “Non-Toxic”. The Activity [9] was “Non-Toxic”, the Activity [10] was “Non-Toxic” and the Activity [11] was “Dose-dependent effect”. The Activity [12] was “Active”, the Activity [13] was “Dose-dependent effect” and the Activity [14] was “inactive”. The Drug uptake [15] was “Active”, the Activity [16] was “Active” and the Activity [17] was “Active”. For the same compound, the Activity [18] was “Active”, the Drug uptake [19] was “Active” and the Drug uptake [20] was “Active”. For the same compound, the Drug uptake [21] was “Active”, the Activity [22] was “Active” and the Activity [23] was “Non-Toxic”. The Activity [24] was “Dose-dependent effect”, the Activity [25] was “Dose-dependent effect” and the Activity [26] was “Dose-dependent effect”. For the same compound, the Activity [27] was “Active”, the Activity [28] was “Active” and the Activity [29] was “Active”. For the same compound, the Activity [30] was “Active”, the Activity [31] was “Active” and the Activity [32] was “Active”. For the same compound, the Activity [33] was “Active”, the Activity [34] was “Active” and the Activity [35] was “Active”.
